Measured values: patent publication US7776868B2, “Substituted bicyclic and tricyclic thieno[2,3-d]pyrimidines as A2A adenosine receptor antagonists” (Gilead Palo Alto, Inc., priority 2006, dated 2010)

target: A2A adenosine receptor (UniProt P29274); assay: A2A radioligand competitive binding assay (3H-MSX-2 displacement); design: species or system human; conditions: competitive binding vs 2 nM 3H-MSX-2, 15 ug A2A membrane, 23° C., 2 hours
Source text: A tritiated adenosine A2A antagonist, 3-(3-hydroxypropyl)-7-methyl-8-(m-methoxystyryl)-1-propargylxanthine, (3H-MSX-2, specific activity: 80 Ci/mmol), was purchased from American Radiolabeled Chemicals, Inc (St. Louis, Mo.). A tritiated adenosine A1 antagonist, 1,3-Dipropyl-8-cyclopentylxanthine ([^3H]DPCPX, specific activity: 120 Ci/mmol) was purchased from Perkin Elmer (Boston, Mass.). A tritiated adenosine A2B antagonist, 4-(2-[7-amino-2-(2-furyl) [1,2,4]triazolo[2,3-a][1,3,5]triazin-5-ylamino]ethyl)phenol ([^3H]ZM241385 specific activity: 27.4 Ci/mmol) was purchased from American Radiolabeled Chemicals, Inc (St. Louis, Mo.). Adenosine Deaminase (ADA) was purchased from Roche Molecular Biochemicals (Nutley, N.J.). GTP was purchased from Sigma. Concentrated stock solution (10 mM) of compounds was dissolved in dimethylsulfoxide (DMSO), stored at −20° C., and diluted in Tris-EDTA buffer (50 mM Tris and 1 mM EDTA, 10 mM MgCl2, pH 7.4) for use in experiments. The final content of dimethylsulfoxide in Tris-EDTA buffer during experiments was not more than 1%. Male Sprague Dawley rats, weighted 250-400 g, 8-10 weeks old, were purchased from Charles River Labs (Wilmington, Mass.).
HEK293 (Human Embryonic Kidney 293) cells stably expressing human A2A adenosine receptor or human A2B adenosine receptor were maintained in DMEM supplemented with 10% fetal bovine serum, 2 mM L-glutamine, 100 IU/ml penicillin, 50 μg/ml streptomycin and 2 μg/ml puromycin. CHO (Chinese Hamster Ovary) cells stably expressing human A1 adenosine receptor or human A3 adenosine receptor were maintained in F12K medium supplemented with 10% fetal bovine serum, 2 mM L-glutamine, 100 IU penicillin, 50 μg/ml streptomycin and 8 μg/ml puromycin. PC12 (rat pheochromocytoma) cells were cultured in F12K medium supplemented with 10% horse serum and 2.5% fetal bovine serum, 2 mM L-glutamine, 100 IU/ml penicillin, and 50 μg/ml streptomycin. All cells were maintained at 37° C. in a humidified 5% CO2/95% air incubator and recultivated 2 times per week.
Cultured cells in 150 mm^2 dishes were washed once with PBS, detached by scrapping, collected with buffer A (10 mM HEPES, 10 mM EDTA, pH 7.4) containing protease inhibitor cocktail. Cells were then homogenized by a handheld homogenizer at a speed of 4.5 for 1 min. The homogenate was centrifuged by a Beckman ultracentrifuge at a speed of 29,000×g for 15 min. The pellets were resuspended in buffer HE (10 mM HEPES, 1 mM EDTA, pH 7.4, with protease inhibitor cocktail), centrifuged again at 29,000×g for 15 min. The crude membrane was resuspended using buffer HE, and protein concentration was measured by the method of Lowery with BSA as standard. Similar procedures were used for membrane preparation for fresh rat tissues. All experimental procedures were done at 4° C. Membranes were aliquot and kept at −80° C.
The binding assays utilized 15 ug of A2A membrane (human recombinant A2A membrane, rat striatal membrane, or PC 12 cell membrane) that had been treated with adenosine deaminase and 50 mM Tris-EDTA buffer (pH=7.4) followed by mixing 2 μL of serially diluted DMSO stock solution of the compounds of this invention at concentrations ranging from 10 μM to 0.1 nM or the control received 2 μL of DMSO alone, then the tritiated antagonist 3-(3-hydroxypropyl)-7-methyl-8-(m-methoxystyryl)-1-propargylxanthine (3H-MSX-2) in Tris-EDTA buffer (50 mM Tris, 1 mM EDTA, 10 mM MgCl2, pH of 7.4) was added to achieve a final concentration of 2 nM. After incubation at 23° C. for 2 hours, the solutions were filtered using a membrane harvester with multiple washing of the membranes (3×). The filter plates were counted in scintillation cocktail affording the amount of displacement ^3H-MSX-2 by the competitive binding compositions of this invention. Radioligand binding data was analyzed using GraphPad Prism version 4.0 (San Diego, Calif.). […]

Point of comparison: CCn1c(=O)[nH]c2sc(/C=C/c3ccccc3F)c(C)c2c1=O [XV, 6-[(1E)-2-(2-fluorophenyl)vinyl]-3-ethyl-5-methyl-1,3-dihydrothiopheno[2,3-d]pyrimidine-2,4-dione], Ki 170 nM. Against it:
- CCn1c(=O)[nH]c2sc(/C=C/c3cccnc3)c(C)c2c1=O [XII, 6-((1E)-2-(3-pyridyl)vinyl)-3-ethyl-5-methyl-1,3-dihydrothiopheno[2,3-d]pyrimidine-2,4-dione] — 5.2-fold lower, 33 nM
- CCn1c(=O)[nH]c2sc(/C=C/c3ccc(F)cc3)c(C)c2c1=O [IV, 6-[(1E)-2-(4-fluorophenyl)vinyl]-3-ethyl-5-methyl-1,3-dihydrothiopheno[2,3-d]pyrimidine-2,4-dione] — within 1.5-fold, 189 nM
- CCn1c(=O)[nH]c2sc(/C=C/c3ccc(Cl)cc3)c(C)c2c1=O [VII, 6-[(1E)-2-(4-chlorophenyl)vinyl]-3-ethyl-5-methyl-1,3-dihydrothiopheno[2,3-d]pyrimidine-2,4-dione] — 1.9-fold higher, 320 nM
- CCn1c(=O)[nH]c2sc(/C=C/c3ccc(OC)c(OC)c3)c(C)c2c1=O [X, 6-[(1E)-2-(3,4-dimethoxyphenyl)vinyl]-3-ethyl-5-methyl-1,3-dihydrothiopheno[2,3-d]pyrimidine-2,4-dione] — 2.3-fold lower, 75 nM
- CCn1c(=O)[nH]c2sc(/C=C/c3cccc(F)c3)c(C)c2c1=O [VI, 6-[(1E)-2-(3-fluorophenyl)vinyl]-3-ethyl-5-methyl-1,3-dihydrothiopheno[2,3-d]pyrimidine-2,4-dione] — within 1.5-fold, 242 nM
- CCn1c(=O)[nH]c2sc(/C=C/c3ccc(-c4ccccc4)cc3)c(C)c2c1=O [VIII, 6-[(1E)-2-(4-phenylphenyl)vinyl]-3-ethyl-5-methyl-1,3-dihydrothiopheno[2,3-d]pyrimidine-2,4-dione] — 4.6-fold higher, 776 nM
- C#CCn1c(=O)c2c(C)c(/C=C/c3ccccc3)sc2n(C)c1=O [V, 6-((1E)-2-phenylvinyl)-1,5-dimethyl-3-prop-2-ynyl-1,3-dihydrothiopheno[2,3-d]pyrimidine-2,4-dione] — 2.3-fold higher, 390 nM
- CCn1c(=O)[nH]c2sc(/C=C/c3ccccc3OC)c(C)c2c1=O [XVII, 6-[(1E)-2-(2-methoxyphenyl)vinyl]-3-ethyl-5-methyl-1,3-dihydrothiopheno[2,3-d]pyrimidine-2,4-dione] — 4.5-fold lower, 38 nM
- CCn1c(=O)[nH]c2sc(/C=C/c3ccccc3)c(C)c2c1=O [III, 6-((1E)-2-phenylvinyl)-3-ethyl-5-methyl-1,3-dihydrothiopheno[2,3-d]pyrimidine-2,4-dione] — within 1.5-fold, 171 nM
- CCn1c(=O)[nH]c2sc(/C=C/c3cccc(OC)c3)c(C)c2c1=O [XVI, 6-[(1E)-2-(3-methoxyphenyl)vinyl]-3-ethyl-5-methyl-1,3-dihydrothiopheno[2,3-d]pyrimidine-2,4-dione] — 1.6-fold lower, 104 nM
- CCn1c(=O)c2c(C)c(/C=C/c3ccc(OC)c(OC)c3)sc2n(COCc2ccccc2)c1=O [II, 6-[(1E)-2-(3,4-dimethoxyphenyl)vinyl]-3-ethyl-5-methyl-1-[(phenylmethoxy)methyl]-1,3-dihydrothiopheno[2,3-d]pyrimidine-2,4-dione] — 5.1-fold higher, 866 nM
- COc1ccc(/C=C/c2sc3[nH]c(=O)n(CC(C)C)c(=O)c3c2C)cc1OC [XI, 6-[(1E)-2-(3,4-dimethoxyphenyl)vinyl]-5-methyl-3-(2-methylpropyl)-1,3-dihydrothiopheno[2,3-d]pyrimidine-2,4-dione] — 1.6-fold higher, 277 nM
- CCn1c(=O)[nH]c2sc(/C=C/c3ccc(C(F)(F)F)cc3)c(C)c2c1=O [IX, 6-{(1E)-2-[4-(trifluoromethyl)phenyl]vinyl}-3-ethyl-5-methyl-1,3-dihydrothiopheno[2,3-d]pyrimidine-2,4-dione] — 4-fold higher, 674 nM
- CCn1c(=O)[nH]c2sc(/C=C/c3ccc(C)cc3)c(C)c2c1=O [XIII, 6-[(1E)-2-(4-methylphenyl)vinyl]-3-ethyl-5-methyl-1,3-dihydrothiopheno[2,3-d]pyrimidine-2,4-dione] — within 1.5-fold, 182 nM
- CCn1c(=O)c2c(C)c(/C=C/c3ccc(OC)c(OC)c3)sc2n(C)c1=O [I, 6-[(1E)-2-(3,4-dimethoxyphenyl)vinyl]-3-ethyl-1,5-dimethyl-1,3-dihydrothiopheno[2,3-d]pyrimidine-2,4-dione] — within 1.5-fold, 220 nM
- CCn1c(=O)[nH]c2sc(/C=C/c3ccc(OC)cc3)c(C)c2c1=O [XIV, 6-[(1E)-2-(4-methoxyphenyl)vinyl]-3-ethyl-5-methyl-1,3-dihydrothiopheno[2,3-d]pyrimidine-2,4-dione] — within 1.5-fold, 119 nM
- CCn1c(=O)[nH]c2sc(/C=C/c3cc(OC)cc(OC)c3)c(C)c2c1=O [XVIII, 6-[(1E)-2-(3,5-dimethoxyphenyl)vinyl]-3-ethyl-5-methyl-1,3-dihydrothiopheno[2,3-d]pyrimidine-2,4-dione] — 1.8-fold lower, 96 nM
